# How the values were obtained:
# female BALB/c mice [1] = assay: Anti-Rha antibody generation with Rha-Ficoll/Alum (ELISA against Rha-BSA); format: in vivo; details: day 66 sera
# Description: The 20 female BALB/c mice used for this study were divided into four groups A1, A2, B1, and B2, containing 5 mice each. Groups A1 and B1 served as the control groups and were not immunized. Groups A2 and B2 were injected subcutaneously (day 0) with a 100 μL subcutaneous injections Rha-Ficoll/Alum on days 14, 28, 42, and 56 (100 μg of Rha-Ficoll per mouse, each boost). The mice in each group A1, A2, B1, and B2 were bled on day 66 and the collected sera were tested for anti-Rha antibodies.
# 96 well plates (Immulon 4 HBX) were coated with Rha-BSA conjugate (6) (2 μg/mL) in 0.01 M PBS and incubated overnight at 4° C. The plates were washed 5 times with PBS containing 0.1% Tween-20. Blocking was achieved by incubating the plates for 1 h at room temperature with BSA in 0.01 M PBS (1 mg/mL). The plates were then washed 5 times and incubated for 1 h with serum dilutions in PBS. Unbound antibody in the serum was removed by washing and the plates were incubated for 1 h at room temperature with Horseradish Peroxidase (HRP) goat anti-mouse IgG+IgM (Jackson Immunoresearch Laboratories) diluted 5000 times in PBS/BSA. The plates were washed with TMB (3,3′,5,5′-tetramethylbenzidine). One component HRP microwell substrate (Bio FX, Owings Mills, Md.) was added and allowed to react for 10 mins. Absorbances were recorded at 620 nm and were plotted against log10 [1/serum dilution]. […]
# female BALB/c mice [2] = assay: Comparison of anti-Rha antibody titers and isotypes generated against Rha-Ficoll and Rha-OVA (screening against Rha-BSA); format: in vivo; details: isotype distribution, sera screened against Rha-BSA
# Description: 96 well plates (Immulon 4 HBX) were coated with Rha-BSA conjugate (6) (2 μg/mL) in 0.01 M PBS and incubated overnight at 4° C. The plates were washed 5 times with PBS containing 0.1% Tween-20. Blocking was achieved by incubating the plates for 1 h at room temperature with BSA in 0.01 M PBS (1 mg/mL). The plates were then washed 5 times and incubated for 1 h with serum dilutions in PBS. Unbound antibody in the serum was removed by washing and the plates were incubated for 1 h at room temperature with Horseradish Peroxidase (HRP) goat anti-mouse IgG+IgM (Jackson Immunoresearch Laboratories) diluted 5000 times in PBS/BSA. The plates were washed with TMB (3,3′,5,5′-tetramethylbenzidine). One component HRP microwell substrate (Bio FX, Owings Mills, Md.) was added and allowed to react for 10 mins. Absorbances were recorded at 620 nm and were plotted against log10 [1/serum dilution].
# Two groups of five female BALB/c mice each were immunized on day 0 with Rha-Ficoll/Alum adjuvant (group A) or Rha-OVA/complete Freund's adjuvant (CFA) (group B). The mice were boosted three more times on days 14, 28, and 42 with either Rha-Ficoll/Alum (group A) or rha-OVA/incomplete Freund's adjuvant (ICF) (group B). Sera were collected separately from groups A and B after the third boost and the anti-Rha antibodies in the sera from the two groups of mice were isotyped by screening against Rha-BSA. […]
# U266 cells = assay: Tumor cell staining (FACS); format: cell-based, human; details: 0.5 μg antibody, FITC goat anti-mouse IgG+IgM
# Description: U266 cells (American Type Culture Collection, Manassas, Va.), were cultured in RPMI 1640 with 15% fetal calf serum (FCS). Cells were stained with purified mouse anti-human MUC1 antibodies (CD227, 0.5 μg), non-immune BALB/c mice serum (1/5 dilution) and group B2 mice serum (1/5 dilution). The cells were then stained with FITC-conjugated goat anti-mouse IgG+IgM (0.5 μg) and fluorescence was quantified with a BD FACS Calibur.
# These cells express MUC1 on their surface as shown by binding with mouse anti-human MUC1 antibodies (CD 227).
Substance,anti-Rha antibody titers in groups A2 and B2 relative to control groups (female BALB/c mice [1]) [fold],IgG3 share of anti-Rha antibodies (female BALB/c mice [2]) [%],IgM share of anti-Rha antibodies (female BALB/c mice [2]) [%],binding to MUC1 on U266 human leukemia cells (U266 cells)
2-Aminoethyl-α-L-Rhamnopyranoside-Ficoll Conjugate [Rha-Ficoll],25,48,25,
CD 227: purified mouse anti-human CD227 (anti-human MUC1) from BD-biosciences,,,,binding
